According to PubChem BioAssay (NCI):
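Tested at 5 concentrations; 48 h exposure; 96-well plates; endpoints linearly interpolated, else capped at highest concentration. TGI: total growth inhibition.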

Legend:
Assay in all cases: NCI anticancer screen, dose series, 48 h
A549 NSCLC = tested on: A549 NSCLC
MCF7 breast = tested on: MCF7 breast
CCRF-CEM leukemia = tested on: CCRF-CEM leukemia
SK-OV-3 ovarian = tested on: SK-OV-3 ovarian
SF-539 CNS = tested on: SF-539 CNS
ACHN renal = tested on: ACHN renal
HT29 colon = tested on: HT29 colon
HL-60(TB) leukemia = tested on: HL-60(TB) leukemia
IGROV1 ovarian = tested on: IGROV1 ovarian
NCI-H226 lung = tested on: NCI-H226 lung
KM12 colon = tested on: KM12 colon
RPMI-8226 leukemia = tested on: RPMI-8226 leukemia
HCT-116 colon = tested on: HCT-116 colon
SNB-75 CNS = tested on: SNB-75 CNS
HOP-92 NSCLC = tested on: HOP-92 NSCLC
NCI-H522 lung = tested on: NCI-H522 lung
SNB-19 CNS = tested on: SNB-19 CNS
EKVX NSCLC = tested on: EKVX NSCLC
MDA-MB-231 breast = tested on: MDA-MB-231 breast
MALME-3M melanoma = tested on: MALME-3M melanoma
HS 578T breast = tested on: HS 578T breast
SF-268 CNS = tested on: SF-268 CNS
RXF 393 renal = tested on: RXF 393 renal
HOP-62 NSCLC = tested on: HOP-62 NSCLC
SN12C renal = tested on: SN12C renal
MDA-N = tested on: MDA-N
SK-MEL-2 melanoma = tested on: SK-MEL-2 melanoma
OVCAR-5 ovarian = tested on: OVCAR-5 ovarian
SK-MEL-5 melanoma = tested on: SK-MEL-5 melanoma
M14 melanoma = tested on: M14 melanoma
CAKI-1 renal = tested on: CAKI-1 renal
NCI-H460 lung = tested on: NCI-H460 lung
UACC-62 melanoma = tested on: UACC-62 melanoma
TK-10 renal = tested on: TK-10 renal
K-562 leukemia = tested on: K-562 leukemia
LOX IMVI melanoma = tested on: LOX IMVI melanoma
OVCAR-4 ovarian = tested on: OVCAR-4 ovarian
A498 renal = tested on: A498 renal
UACC-257 melanoma = tested on: UACC-257 melanoma
PC-3 prostate = tested on: PC-3 prostate
MOLT-4 leukemia = tested on: MOLT-4 leukemia
SW-620 colon = tested on: SW-620 colon
HCT-15 colon = tested on: HCT-15 colon
MDA-MB-435 = tested on: MDA-MB-435
COLO 205 colon = tested on: COLO 205 colon
OVCAR-8 ovarian = tested on: OVCAR-8 ovarian
U251 CNS = tested on: U251 CNS
SF-295 CNS = tested on: SF-295 CNS
HCC-2998 colon = tested on: HCC-2998 colon
NCI/ADR-RES ovarian = tested on: NCI/ADR-RES ovarian
SK-MEL-28 melanoma = tested on: SK-MEL-28 melanoma
786-0 renal = tested on: 786-0 renal
BT-549 breast = tested on: BT-549 breast

Measured: TGI

COc1cccc(NC(=O)c2c(SC)n[nH]c2N)c1
> 100 µM: all assays above
